What was measured:
CCRF-CEM = test: panel of 60 human tumor cell lines, growth inhibition (Leukemia)
SR = test: as above
LOX IMVI = test: panel of 60 human tumor cell lines, growth inhibition (Melanoma)
M14 = test: as above
MDA-MB-435 = test: as above
SK-MEL-5 = test: as above; conditions: for Percent Growth: 8K-MEL-5
U251 = test: panel of 60 human tumor cell lines, growth inhibition (CNS Cancer); conditions: for Percent Growth: U251
HCC-2998 = test: panel of 60 human tumor cell lines, growth inhibition (Colon Cancer); conditions: for Percent Growth: HCC-2998
786-0 = test: panel of 60 human tumor cell lines, growth inhibition (Renal Cancer)
ACHN = test: as above; conditions: Homo sapiens

Compound: C=C1C(=O)O[C@H]2[C@H]1CC/C(COC(=O)NCCc1ccccn1)=C\CC[C@@]1(C)O[C@@H]21 [JVM 61, ((1aR,7aS,10aS,10bS,E)-1a-methyl-8-methylene-9-oxo-1a,2,3,6,7,7a,8,9,10a,10b-decahydrooxireno[2′,3′:9,10]cyclodeca[1,2-b]furan-5-yl)methyl-(2-(pyridin-2-yl)ethyl)carbamate]
- GI50 (CCRF-CEM; Homo sapiens): 2.65 µM
- GI50 (CCRF-CEM; Homo sapiens, 5-dose assay): 2.65 µM
- CC50 (CCRF-CEM; Homo sapiens, read-out: LC50): > 100 µM
- IC (TGI) (CCRF-CEM; Homo sapiens, read-out: TGI): 8.59 µM
- Percent Growth (CCRF-CEM; Log10 Concentration −4.0): −39%
- Percent Growth (CCRF-CEM; Log10 Concentration −5.0): −6%
- Percent Growth (CCRF-CEM; Log10 Concentration −6.0): 91%
- Percent Growth (CCRF-CEM; Log10 Concentration −7.0): 100%
- Percent Growth (CCRF-CEM; Log10 Concentration −8.0): 104%
- GI50 (SR; Homo sapiens): 4.1 µM
- CC50 (SR; Homo sapiens, read-out: LC50): > 100 µM
- IC (TGI) (SR; Homo sapiens, read-out: TGI): 24.6 µM
- Percent Growth (SR; Log10 Concentration −4.0): −34%
- Percent Growth (SR; Log10 Concentration −5.0): 22%
- Percent Growth (SR; Log10 Concentration −6.0): 95%
- Percent Growth (SR; Log10 Concentration −7.0): 100%
- Percent Growth (SR; Log10 Concentration −8.0): 99%
- GI50 (LOX IMVI; Homo sapiens): 4.96 µM
- GI50 (LOX IMVI; Homo sapiens, 5-dose assay): 4.96 µM
- CC50 (LOX IMVI; Homo sapiens, read-out: LC50): 58.2 µM
- IC (TGI) (LOX IMVI; Homo sapiens, read-out: TGI): 19.4 µM
- Percent Growth (LOX IMVI; Log10 Concentration −4.0): −75%
- Percent Growth (LOX IMVI; Log10 Concentration −5.0): 30%
- Percent Growth (LOX IMVI; Log10 Concentration −6.0): 96%
- Percent Growth (LOX IMVI; Log10 Concentration −7.0): 102%
- Percent Growth (LOX IMVI; Log10 Concentration −8.0): 99%
- GI50 (M14; Homo sapiens, M14): 5.58 µM
- CC50 (M14; Homo sapiens, M14, read-out: LC50): 66.7 µM
- IC (TGI) (M14; Homo sapiens, M14, read-out: TGI): 21.6 µM
- Percent Growth (M14; M14, Log10 Concentration −4.0): −68%
- Percent Growth (M14; M14, Log10 Concentration −5.0): 34%
- Percent Growth (M14; M14, Log10 Concentration −6.0): 97%
- Percent Growth (M14; M14, Log10 Concentration −7.0): 102%
- Percent Growth (M14; M14, Log10 Concentration −8.0): 100%
- GI50 (MDA-MB-435; Homo sapiens, MDA-MB-435): 6.01 µM
- CC50 (MDA-MB-435; Homo sapiens, MDA-MB-435, read-out: LC50): 82.4 µM
- IC (TGI) (MDA-MB-435; Homo sapiens, MDA-MB-435, read-out: TGI): 24.7 µM
- Percent Growth (MDA-MB-435; MDA-MB-435, Log10 Concentration −4.0): −58%
- Percent Growth (MDA-MB-435; MDA-MB-435, Log10 Concentration −5.0): 38%
- Percent Growth (MDA-MB-435; MDA-MB-435, Log10 Concentration −6.0): 94%
- Percent Growth (MDA-MB-435; MDA-MB-435, Log10 Concentration −7.0): 94%
- Percent Growth (MDA-MB-435; MDA-MB-435, Log10 Concentration −8.0): 97%
- Percent Growth (SK-MEL-5; Log10 Concentration −4.0): −94%
- Percent Growth (SK-MEL-5; Log10 Concentration −5.0): 50%
- Percent Growth (SK-MEL-5; Log10 Concentration −6.0): 96%
- Percent Growth (SK-MEL-5; Log10 Concentration −7.0): 95%
- Percent Growth (SK-MEL-5; Log10 Concentration −8.0): 96%
- GI50 (SK-MEL-5; Homo sapiens, SK-MEL-5): 9.78 µM
- CC50 (SK-MEL-5; Homo sapiens, SK-MEL-5, read-out: LC50): 49.1 µM
- IC (TGI) (SK-MEL-5; Homo sapiens, SK-MEL-5, read-out: TGI): 22.1 µM
- GI50 (U251; Homo sapiens, U-251): 12.5 µM
- CC50 (U251; Homo sapiens, U-251, read-out: LC50): 55.6 µM
- IC (TGI) (U251; Homo sapiens, U-251, read-out: TGI): 25.4 µM
- Percent Growth (U251; Log10 Concentration −4.0): −89%
- Percent Growth (U251; Log10 Concentration −5.0): 65%
- Percent Growth (U251; Log10 Concentration −6.0): 93%
- Percent Growth (U251; Log10 Concentration −7.0): 91%
- Percent Growth (U251; Log10 Concentration −8.0): 97%
- Percent Growth (HCC-2998; Log10 Concentration −4.0): −86%
- Percent Growth (HCC-2998; Log10 Concentration −5.0): 87%
- Percent Growth (HCC-2998; Log10 Concentration −6.0): 100%
- Percent Growth (HCC-2998; Log10 Concentration −7.0): 103%
- Percent Growth (HCC-2998; Log10 Concentration −8.0): 101%
- GI50 (HCC-2998; Homo sapiens, HCC 2998): 16.3 µM
- CC50 (HCC-2998; Homo sapiens, HCC 2998, read-out: LC50): 62.1 µM
- IC (TGI) (HCC-2998; Homo sapiens, HCC 2998, read-out: TGI): 31.8 µM
- Percent Growth (786-0; 786-0, Log10 Concentration −4.0): −93%
- Percent Growth (786-0; 786-0, Log10 Concentration −5.0): 15%
- Percent Growth (786-0; 786-0, Log10 Concentration −6.0): 96%
- Percent Growth (786-0; 786-0, Log10 Concentration −7.0): 101%
- Percent Growth (786-0; 786-0, Log10 Concentration −8.0): 101%
- GI50 (786-0; Homo sapiens, 786-0): 3.7 µM
- CC50 (786-0; Homo sapiens, 786-0, read-out: LC50): 39.8 µM
- IC (TGI) (786-0; Homo sapiens, 786-0, read-out: TGI): 13.8 µM
- GI50 (ACHN): 2.75 µM
- CC50 (ACHN; read-out: LC50): 34.5 µM
- IC (TGI) (ACHN; read-out: TGI): 11.3 µM

— US9469650B2, “Melampomagnolide B derivatives” (BOARD OF TRUSTEES OF THE UNIVERSITY OF ARKANSAS, priority 2013, dated 2016)
